Measurements from patent publication US9763445B2, “Safened herbicidal compositions comprising a pyridine carboxylic acid herbicide” (Dow AgroSciences, LLC, priority 2014, dated 2017).

Assays:
winter rape (BRSNW) = test: Postemergence greenhouse trial, % visual injury on winter rape; type: in vivo, Brassica napus; details: for % visual injury, Ob: BRSNW
In short: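 Visual injury, 0 (none) to 100 (complete kill), rated 20-22 d after overhead track-sprayer application at 187 L/ha; Colby's equation gave expected mixture responses. Herbicide (g ae/ha) and cloquintocet-mexyl safener (g ai/ha) diluted in aqueous 1.5% v/v Agri-dex, applied to weeds at 2–3 true leaves.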

common poppy (PAPRH) = test: Postemergence greenhouse trial, % visual injury on common poppy; type: in vivo, Papaver rhoeas; details: for % visual injury, Ob / % visual injury, observed (Ob): PAPRH
In short: (§1)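 Herbicide rates g ae/ha, safener (cloquintocet-mexyl) rates g ai/ha; spray carrier 1.5% v/v crop oil concentrate, 187 L/ha, 2nd–3rd leaf stage. Rating: visual % injury at 20-22 d.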

pigweed (AMARE) = test: Postemergence greenhouse trial, % visual injury on pigweed; type: in vivo, Amaranthus retroflexus; details: for % visual injury, Ob / % visual injury, observed (Ob): AMARE
In short: (§2)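 Injury was scored visually (0 = none, 100 = complete kill) 20–22 d after track-sprayer application at 187 L/ha, compared with solvent-sprayed controls. Test plants at the 2–3 true leaf stage; herbicide (g ae/ha) plus cloquintocet-mexyl safener (g ai/ha) in crop-oil-containing spray; expected mixture response by Colby.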

[1] = system: bird's-eye speedwell (VERPE); test: Postemergence greenhouse trial, % visual injury on bird's-eye speedwell; type: in vivo, Veronica persica
In short: as §1

spring wheat (TRZAS) = test: Postemergence greenhouse trial, % visual injury on spring wheat; type: in vivo, Triticum aestivum
In short: as §2

[2] = compound 0 g/ha, CQC-m 4.375 g/ha
[3] = compound 0 g/ha, CQC-m 8.75 g/ha
[4] = compound 0 g/ha, CQC-m 17.5 g/ha

CCCCCC(C)OC(=O)COc1ccc(Cl)c2cccnc12 (stereo not shown) [CQC-m, cloquintocet-mexyl, reference compound]
0%: % visual injury, Ob (winter rape (BRSNW); 4.375 g/ha, applied alone) | % visual injury, Ob (winter rape (BRSNW); 8.75 g/ha, applied alone) | % visual injury, Ob (winter rape (BRSNW); 17.5 g/ha, applied alone) | % visual injury, Ob (winter rape (BRSNW); 35 g/ha, applied alone) | % visual injury, Ob (winter rape (BRSNW); 70 g/ha, applied alone) | % visual injury, Ob (winter rape (BRSNW); compound 0, CQC-m 4.375 g/ha) | % visual injury, Ob (winter rape (BRSNW); compound 0, CQC-m 8.75 g/ha) | % visual injury, Ob (winter rape (BRSNW); compound 0, CQC-m 17.5 g/ha) | % visual injury, Ob (winter rape (BRSNW); compound 0, CQC-m 35 g/ha) | % visual injury, Ob (winter rape (BRSNW); compound 0, CQC-m 70 g/ha) | % visual injury, Ob (winter rape (BRSNW); [2]) | % visual injury, Ob (winter rape (BRSNW); [3]) | % visual injury, Ob (winter rape (BRSNW); [4]) | % visual injury, Ob (winter rape (BRSNW); compound 0 g/ha, CQC-m 35 g/ha) | % visual injury, Ob (winter rape (BRSNW); compound 0 g/ha, CQC-m 70 g/ha) | plant injury at 4.375 g/ha (winter rape (BRSNW); Brassica napus, post-emergence, alone, 4.375 g/ha, read-out: % visual injury, Ob) | plant injury at 8.75 g/ha (winter rape (BRSNW); Brassica napus, post-emergence, alone, 8.75 g/ha, read-out: % visual injury, Ob) | plant injury at 17.5 g/ha (winter rape (BRSNW); Brassica napus, post-emergence, alone, 17.5 g/ha, read-out: % visual injury, Ob) | plant injury at 35 g/ha (winter rape (BRSNW); Brassica napus, post-emergence, alone, 35 g/ha, read-out: % visual injury, Ob) | plant injury at 70 g/ha (winter rape (BRSNW); Brassica napus, post-emergence, alone, 70 g/ha, read-out: % visual injury, Ob) | % visual injury, Ob (common poppy (PAPRH); 4.375 g/ha, applied alone) | % visual injury, Ob (common poppy (PAPRH); 8.75 g/ha, applied alone) | % visual injury, Ob (common poppy (PAPRH); 17.5 g/ha, applied alone) | % visual injury, Ob (common poppy (PAPRH); 35 g/ha, applied alone) | % visual injury, Ob (common poppy (PAPRH); 70 g/ha, applied alone) | % visual injury, Ob (common poppy (PAPRH); compound 0, CQC-m 4.375 g/ha) | % visual injury, Ob (common poppy (PAPRH); compound 0, CQC-m 8.75 g/ha) | % visual injury, Ob (common poppy (PAPRH); compound 0, CQC-m 17.5 g/ha) | % visual injury, Ob (common poppy (PAPRH); compound 0, CQC-m 35 g/ha) | % visual injury, Ob (common poppy (PAPRH); compound 0, CQC-m 70 g/ha) | % visual injury, Ob (common poppy (PAPRH); [2]) | % visual injury, Ob (common poppy (PAPRH); [3]) | % visual injury, Ob (common poppy (PAPRH); [4]) | % visual injury, Ob (common poppy (PAPRH); compound 0 g/ha, CQC-m 35 g/ha) | % visual injury, Ob (common poppy (PAPRH); compound 0 g/ha, CQC-m 70 g/ha) | % visual injury, observed (Ob) (common poppy (PAPRH); compound 8 0 + CQC-m 4.375 g/ha) | % visual injury, observed (Ob) (common poppy (PAPRH); compound 8 0 + CQC-m 8.75 g/ha) | % visual injury, observed (Ob) (common poppy (PAPRH); compound 8 0 + CQC-m 17.5 g/ha) | % visual injury, observed (Ob) (common poppy (PAPRH); compound 8 0 + CQC-m 35 g/ha) | % visual injury, observed (Ob) (common poppy (PAPRH); compound 8 0 + CQC-m 70 g/ha) | pest or weed control at 4.375 g/ha (common poppy (PAPRH); Papaver rhoeas, post-emergence, alone, 4.375 g/ha, read-out: % visual injury, Ob) | pest or weed control at 8.75 g/ha (common poppy (PAPRH); Papaver rhoeas, post-emergence, alone, 8.75 g/ha, read-out: % visual injury, Ob) | pest or weed control at 17.5 g/ha (common poppy (PAPRH); Papaver rhoeas, post-emergence, alone, 17.5 g/ha, read-out: % visual injury, Ob) | pest or weed control at 35 g/ha (common poppy (PAPRH); Papaver rhoeas, post-emergence, alone, 35 g/ha, read-out: % visual injury, Ob) | pest or weed control at 70 g/ha (common poppy (PAPRH); Papaver rhoeas, post-emergence, alone, 70 g/ha, read-out: % visual injury, Ob) | % visual injury, Ob (pigweed (AMARE); 4.375 g/ha, applied alone) | % visual injury, Ob (pigweed (AMARE); 8.75 g/ha, applied alone) | % visual injury, Ob (pigweed (AMARE); 17.5 g/ha, applied alone) | % visual injury, Ob (pigweed (AMARE); 35 g/ha, applied alone) | % visual injury, Ob (pigweed (AMARE); 70 g/ha, applied alone) | % visual injury, Ob (pigweed (AMARE); compound 0, CQC-m 4.375 g/ha) | % visual injury, Ob (pigweed (AMARE); compound 0, CQC-m 8.75 g/ha) | % visual injury, Ob (pigweed (AMARE); compound 0, CQC-m 17.5 g/ha) | % visual injury, Ob (pigweed (AMARE); compound 0, CQC-m 35 g/ha) | % visual injury, Ob (pigweed (AMARE); compound 0, CQC-m 70 g/ha) | % visual injury, Ob (pigweed (AMARE); [2]) | % visual injury, Ob (pigweed (AMARE); [3]) | % visual injury, Ob (pigweed (AMARE); [4]) | % visual injury, Ob (pigweed (AMARE); compound 0 g/ha, CQC-m 35 g/ha) | % visual injury, Ob (pigweed (AMARE); compound 0 g/ha, CQC-m 70 g/ha) | % visual injury, observed (Ob) (pigweed (AMARE); safener alone 2.5 g/ha) | % visual injury, observed (Ob) (pigweed (AMARE); safener alone 5 g/ha) | % visual injury, observed (Ob) (pigweed (AMARE); safener alone 10 g/ha) | % visual injury, observed (Ob) (pigweed (AMARE); safener alone 20 g/ha) | pest or weed control at 4.375 g/ha (pigweed (AMARE); Amaranthus retroflexus, post-emergence, alone, 4.375 g/ha, read-out: % visual injury, Ob) | pest or weed control at 8.75 g/ha (pigweed (AMARE); Amaranthus retroflexus, post-emergence, alone, 8.75 g/ha, read-out: % visual injury, Ob) | pest or weed control at 17.5 g/ha (pigweed (AMARE); Amaranthus retroflexus, post-emergence, alone, 17.5 g/ha, read-out: % visual injury, Ob) | pest or weed control at 20 g/ha (pigweed (AMARE); Amaranthus retroflexus, post-emergence, alone, 20 g/ha, read-out: % visual injury, Ob) | pest or weed control at 35 g/ha (pigweed (AMARE); Amaranthus retroflexus, post-emergence, alone, 35 g/ha, read-out: % visual injury, Ob) | pest or weed control at 40 g/ha (pigweed (AMARE); Amaranthus retroflexus, post-emergence, alone, 40 g/ha, read-out: % visual injury, Ob) | pest or weed control at 70 g/ha (pigweed (AMARE); Amaranthus retroflexus, post-emergence, alone, 70 g/ha, read-out: % visual injury, Ob) | pest or weed control at 80 g/ha (pigweed (AMARE); Amaranthus retroflexus, post-emergence, alone, 80 g/ha, read-out: % visual injury, Ob) | % visual injury, Δ (pigweed (AMARE); alone, 35 g/ha) | % visual injury, Ob ([1]; VERPE, compound 0, CQC-m 4.375 g/ha) | % visual injury, Ob ([1]; VERPE, compound 0, CQC-m 8.75 g/ha) | % visual injury, Ob ([1]; VERPE, compound 0, CQC-m 17.5 g/ha) | % visual injury, Ob ([1]; VERPE, compound 0, CQC-m 35 g/ha) | % visual injury, Ob ([1]; VERPE, compound 0, CQC-m 70 g/ha) | % visual injury, Ob ([1]; VERPE, compound 0 g/ha, CQC-m 4.375 g/ha) | % visual injury, Ob ([1]; VERPE, compound 0 g/ha, CQC-m 8.75 g/ha) | % visual injury, Ob ([1]; VERPE, compound 0 g/ha, CQC-m 17.5 g/ha) | % visual injury, Ob ([1]; VERPE, compound 0 g/ha, CQC-m 35 g/ha) | % visual injury, Ob ([1]; VERPE, compound 0 g/ha, CQC-m 70 g/ha) | % visual injury, observed (Ob) ([1]; VERPE, compound 8 0 + CQC-m 4.375 g/ha) | % visual injury, observed (Ob) ([1]; VERPE, compound 8 0 + CQC-m 8.75 g/ha) | % visual injury, observed (Ob) ([1]; VERPE, compound 8 0 + CQC-m 17.5 g/ha) | % visual injury, observed (Ob) ([1]; VERPE, compound 8 0 + CQC-m 35 g/ha) | % visual injury, observed (Ob) ([1]; VERPE, compound 8 0 + CQC-m 70 g/ha) | % visual injury, Ob ([1]; alone, 4.375 g/ha) | % visual injury, Ob ([1]; alone, 8.75 g/ha) | % visual injury, Ob ([1]; alone, 17.5 g/ha) | % visual injury, Ob ([1]; alone, 35 g/ha) | % visual injury, Ob ([1]; alone, 70 g/ha) | % visual injury, Ob (spring wheat (TRZAS); TRZAS, 4.375 g/ha, applied alone) | % visual injury, Ob (spring wheat (TRZAS); TRZAS, 8.75 g/ha, applied alone) | % visual injury, Ob (spring wheat (TRZAS); TRZAS, 17.5 g/ha, applied alone) | % visual injury, Ob (spring wheat (TRZAS); TRZAS, 35 g/ha, applied alone) | % visual injury, Ob (spring wheat (TRZAS); TRZAS, 70 g/ha, applied alone) | % visual injury, Ob (spring wheat (TRZAS); TRZAS, compound 0, CQC-m 4.375 g/ha) | % visual injury, Ob (spring wheat (TRZAS); TRZAS, compound 0, CQC-m 8.75 g/ha) | % visual injury, Ob (spring wheat (TRZAS); TRZAS, compound 0, CQC-m 17.5 g/ha) | % visual injury, Ob (spring wheat (TRZAS); TRZAS, compound 0, CQC-m 35 g/ha) | % visual injury, Ob (spring wheat (TRZAS); TRZAS, compound 0, CQC-m 70 g/ha) | % visual injury, Ob (spring wheat (TRZAS); TRZAS, compound 0 g/ha, CQC-m 4.375 g/ha) | % visual injury, Ob (spring wheat (TRZAS); TRZAS, compound 0 g/ha, CQC-m 8.75 g/ha) | % visual injury, Ob (spring wheat (TRZAS); TRZAS, compound 0 g/ha, CQC-m 17.5 g/ha) | % visual injury, Ob (spring wheat (TRZAS); TRZAS, compound 0 g/ha, CQC-m 35 g/ha) | % visual injury, Ob (spring wheat (TRZAS); TRZAS, compound 0 g/ha, CQC-m 70 g/ha) | % visual injury, observed (Ob) (spring wheat (TRZAS); TRZAS, compound 8 0 + CQC-m 4.375 g/ha) | % visual injury, observed (Ob) (spring wheat (TRZAS); TRZAS, compound 8 0 + CQC-m 8.75 g/ha) | % visual injury, observed (Ob) (spring wheat (TRZAS); TRZAS, compound 8 0 + CQC-m 17.5 g/ha) | % visual injury, observed (Ob) (spring wheat (TRZAS); TRZAS, compound 8 0 + CQC-m 35 g/ha) | % visual injury, observed (Ob) (spring wheat (TRZAS); TRZAS, compound 8 0 + CQC-m 70 g/ha) | % visual injury, Ob (spring wheat (TRZAS); alone, 4.375 g/ha) | % visual injury, Ob (spring wheat (TRZAS); alone, 8.75 g/ha) | % visual injury, Ob (spring wheat (TRZAS); alone, 17.5 g/ha) | % visual injury, Ob (spring wheat (TRZAS); alone, 20 g/ha) | % visual injury, Ob (spring wheat (TRZAS); alone, 35 g/ha) | % visual injury, Ob (spring wheat (TRZAS); alone, 40 g/ha) | % visual injury, Ob (spring wheat (TRZAS); alone, 70 g/ha) | % visual injury, Ob (spring wheat (TRZAS); alone, 80 g/ha)
